Consider three molecules from article PMC8600407 (Soft matter, 2021).

Broadly, the logP is a log measure of how a compound divides between an organic and an aqueous phase.

Data set [1] relates to alkaline phosphatase (ALP). To be noted: fff derivatives 8 mM, ALP 1.0 or 0.1 UmL^-1.
The conditions of data set [2]: hydrophobicity of the aromatic group; source not stated; cited from earlier work.

Consider `O=C(O)c1ccc(-c2ccc(OP(=O)(O)O)cc2)cc1` [pBP, phosphohydroxybiphenyl-carboxylic acid], for which the “enzymatic hydrogelation, times faster than pB as enzyme trigger” value in data set [1] is 50–60 times.

Consider phosphohydroxynaphthoic acid [pNP], for which the “enzymatic hydrogelation, times faster than pB as enzyme trigger” value in data set [1] was 50–60 times.

As to `c1ccc(-c2ccccc2)cc1` [biphenyl], the lipophilicity (logP) in data set [2] is given as 3.71.
